From patent EP1032559B1 (priority 1997, dated 1999)
Where a name gives a salt, the structure may show the parent alone.

Legend:
acetylcholinesterase = target: T1, acetylcholinesterase (Rattus norvegicus, UniProt P37136); assay: biochemical; design: species or system Male Wistar rats
T1 construct: corpora striata dissected free, weighted and homogenized in 19 volumes; from tissue; host or cells: rat brain corpora striata, crude homogenate
T1 sequence (P37136 32-614): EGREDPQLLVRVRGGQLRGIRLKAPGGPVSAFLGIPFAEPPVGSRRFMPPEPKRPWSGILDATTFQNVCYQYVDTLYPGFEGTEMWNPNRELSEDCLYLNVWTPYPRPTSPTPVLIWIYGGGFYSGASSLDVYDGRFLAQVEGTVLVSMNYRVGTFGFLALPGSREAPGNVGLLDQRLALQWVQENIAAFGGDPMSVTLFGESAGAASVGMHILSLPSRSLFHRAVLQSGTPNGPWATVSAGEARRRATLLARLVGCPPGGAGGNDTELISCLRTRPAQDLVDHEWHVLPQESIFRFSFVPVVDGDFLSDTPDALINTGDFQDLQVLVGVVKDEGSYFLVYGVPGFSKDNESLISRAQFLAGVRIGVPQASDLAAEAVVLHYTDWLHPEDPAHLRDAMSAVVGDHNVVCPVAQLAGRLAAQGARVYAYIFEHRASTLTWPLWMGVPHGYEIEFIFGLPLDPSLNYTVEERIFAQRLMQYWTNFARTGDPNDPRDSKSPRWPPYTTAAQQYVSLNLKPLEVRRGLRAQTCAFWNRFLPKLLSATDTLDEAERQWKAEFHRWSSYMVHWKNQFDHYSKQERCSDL
Experimental: 0.05M Phosphate Buffer (pH 7.2)
A solution of monobasic sodium phosphate monohydrate (6.85 g) in distilled water (100 ml) is added to a solution of dibasic sodium phosphate heptahydrate (13.4 g) and distilled water (100 ml) until a pH of 7.2 was attained. The solution was diluted 1 to 10 with distilled water.
5,5-Dithiobisnitrobenzoic acid in Buffer
The 0.05M Phosphate Buffer (pH 7.2) was added to 5.5-dithiobisnitrobenzoic acid to a total volume of 100 ml, i.e., a quantity sufficient (gs) to 100 ml.
A 2 millimolar stock solution of the test drug is prepared in a quantity sufficient of either acetic acid or dimethyl sulfoxide to volume with 5,5-dithiobisnitrobenzoic acid in Buffer. […]
Male Wistar rats are decapitated, brains rapidly removed, corpora striata dissected free, weighted and homogenized in 19 volumes (approximately 7 mg protein/ml) of 0.05M Phosphate Buffer (pH 7.2) using a Potter-Elvejhem homogenizer. […] Enzyme activity is measured with a Beckman DU-50 spectrophotometer with the following software and instrument settings: • 1. […]
Blank values are determined for each run to control for non-enzymatic hydrolysis of substrate and these values are automatically subtracted by the Kindata program available on kinetics soft-pac module. This program also calculates the rate of absorbance change for each cuvette. […]
IC50 values are calculated from log-probit analysis

clonidine: α2-receptor = assay: in vitro clonidine binding: α2-receptor assay; design: species or system Male Wistar rats; conditions: rat cortical tissue homogenate; 3 nM 3H-clonidine; 20 minutes at 25° C; log-probit analysis; read-out: Inhibition of clonidine binding activity IC50
Experimental: The following reagents are prepared: 1.
[4-^3H]-Clonidine Hydrochloride (20-30 Ci/mmol) is obtained from New England Nuclear. […] Clonidine hydrochloride is obtained from Boehringer Ingelheim. A stock solution of 0.1 mM clonidine is made up to determine nonspecific binding. This yields a final concentration of 1 µM in the assay (20 µl to 2 ml). […] Test compounds. For most assays, a 1 mM stock solution is made up in a suitable solvent and serially diluted, such that the final concentration in the assay ranges from 10-^5 to 10-^8M.
Male Wistar rats are sacrificed by decapitation and the cortica tissue rapidly dissected. The tissue is homogenized in 50 volumes of 0.05 M Tris buffer, pH 7.7 (buffer 1b) with the Brinkman Polytron, then centrifuged at 40,000 g for 15 minutes. The supernatant is discarded and the pellet rehomogenized in the original volume of 0.05 M Tris buffer, pH 7.7 and recentrifuged as before. The supernate is discarded and the final pellet rehomogenized in 50 volumes of Buffer 2b. This tissue suspension is then stored on ice. The final tissue concentration is 10 mg/ml. […]
Tissue homogenates are incubated for 20 minutes at 25° C with 3 nM ^3H-clonidine and varying drug concentrations, then immediately filtered under reduced pressure on Whatman GF/B filters. […] Ten ml of liquescent counting solution is added to each sample which is then counted by liquid scintillation spectroscopy. […]

| Structure (SMILES) | IC50 (acetylcholinesterase) | IC50 (clonidine: α2-receptor) |
| --- | --- | --- |
| C#CCOc1cc(CN2CCN(c3ccccn3)CC2)ccc1OC [4-Methoxy-3-(propargyloxy)-1-[[4-(pyridin-2-yl)piperazin-1-yl]methyl] benzene hydrochloride monohydrate] | 26900 nM | 34.6 nM |
| C#CCOc1cc(CN2CCCC2)ccc1OC(=O)NC [reference compound] | 3.6 nM |  |
